Where “and” joins values, the source holds several entries; their conditions need not be identical. Equal entries are not always repeated.
Key:
TLR5 = TLR5 (Mus musculus, UniProt Q9JLF7); experiment: TLR multiplex sensor, EIS film resistance before/after exposure (Example 5), TLR5 sensor; assay type: binding; conditions: exposure 20 minutes
Procedure: (§1) For each multiplex TLR sensor, 5 separate gold electrodes were used for binding TLR 1 to 5. The 5 modified electrodes/sensors were exposed to the analyte solution and evaluated one by one using potentiostats and electrochemical cells.
(§2) The preparation of each TLR biosensor was evaluated using EIS. It is understood that cyclic voltammetry as well as electrochemical impedance microscopy can also be used for monitoring the modification. […] Ethanolamine was then applied to deactivate unreacted LPA. Due to dissociation of unspecific absorbed TLR, the Rct dropped slightly. Experimental curves were evaluated using a model to obtain the Rct values, which can be seen at FIG. 9. Measurements from at least triplicated samples prepared were used to obtain statistic information.
(§3) The TLR1 sensor was exposed to an E. coli K12 whole-cell buffer solution for 20 minutes. The sensor was then removed, washed thoroughly and characterized in the electrochemical cell measuring the Rct again. The difference in Rct before and after exposure is the response triggered by the target. The same protocol was carried out for all remaining TLRs (TLRs 2-5) to obtain one set of pattern for E. coli K12 (FIGS. 10b to 10e). Multiple sets were investigated for statistical relevance. […]

rmTLR1 = molecular target: T1, rmTLR1 (Mus musculus, UniProt Q9EPQ1); experiment: Label-free TLR1 sensor, EIS detection of Pam3CSK4 (Example 7); assay type: binding; conditions: for delta Rct %: 20 minutes; for Rct: before immersion 10250
T1 construct: purchased R&D Systems RDS1476TR050
T1 sequence (Q9EPQ1 26-795): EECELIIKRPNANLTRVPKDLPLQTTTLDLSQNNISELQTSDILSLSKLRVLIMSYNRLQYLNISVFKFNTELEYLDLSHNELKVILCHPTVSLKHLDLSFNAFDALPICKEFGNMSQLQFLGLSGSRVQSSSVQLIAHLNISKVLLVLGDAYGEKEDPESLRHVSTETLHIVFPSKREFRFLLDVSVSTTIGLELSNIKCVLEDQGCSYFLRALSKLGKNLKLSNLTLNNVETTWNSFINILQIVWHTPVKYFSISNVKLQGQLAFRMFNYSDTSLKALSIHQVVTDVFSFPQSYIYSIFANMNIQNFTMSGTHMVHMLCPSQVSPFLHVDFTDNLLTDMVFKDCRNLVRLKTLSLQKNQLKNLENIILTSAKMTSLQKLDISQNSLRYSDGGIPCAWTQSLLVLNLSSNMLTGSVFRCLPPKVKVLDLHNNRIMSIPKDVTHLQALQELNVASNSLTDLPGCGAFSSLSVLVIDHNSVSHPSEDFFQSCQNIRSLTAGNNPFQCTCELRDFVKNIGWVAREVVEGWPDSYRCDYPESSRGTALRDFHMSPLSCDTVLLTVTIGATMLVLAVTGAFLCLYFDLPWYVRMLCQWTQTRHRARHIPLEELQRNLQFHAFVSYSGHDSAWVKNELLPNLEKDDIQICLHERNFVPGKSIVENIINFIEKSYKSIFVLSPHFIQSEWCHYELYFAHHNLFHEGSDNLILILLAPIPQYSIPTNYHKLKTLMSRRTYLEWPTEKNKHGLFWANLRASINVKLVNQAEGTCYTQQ
Procedure: (§4) TLR sensors were prepared using fresh, cleaned gold electrodes. The electrodes were immersed in a 2 mM 1-lipoic acid n-hydroxysuccinimide ester (LPA) ethanol solution for 48 hours at 277 K. The electrodes were then rinsed thoroughly using absolute ethanol and blown dry under nitrogen before incubation in 200 μg/ml rmTLR1, 200 μg/ml rmTLR2 and 200 μg/ml ‘rmTLR1 and 2’ mixture for 72 hours at 277 K. The rmTLR1 and 2 mixture was prepared by mixing 200 μg/ml rmTLR1 and 200 μg/ml rmTLR2 with a volume ratio of 1:1. The final concentration of each component was 100 μg/ml and the total concentration of the combined TLR protein content was 200 μg/ml. Following the supplier's recommended conditions, all TLRs were prepared in PBS buffer (pH˜7.4). The electrodes were rinsed with an excess volume of Milli-Q water and blown dry under nitrogen. An ethanolamine-tris buffer solution was prepared by dissolving 1.2 g of ethanolamine and 0.121 g of Tris base in 20 mL of water, the pH was adjusted to 8.4 using hydrochloric acid. TLR-immobilized electrodes were incubated in the ethanolamine solution for one hour at room temperature in order to block any remaining unreacted LPA amine sites. The fabricated sensors with immobilized, standalone rmTLR3, rmTLR4/MD-2 and rmTLR5, used for the selectivity test, were prepared using the same protocol described above.
(§5) Pam3CSK4 was dissolved in 10 mM HEPES aqueous buffer at pH˜7.4. The blocked rmTLR biosensors were incubated in Pam3CSK4 at various concentrations for 20 minutes. The electrodes were always washed thoroughly with same HEPES buffer (pH˜7.4) after the incubation.
(§6) All electrochemical measurements were carried out using a cell with a three-electrode configuration in an enclosed Faraday cage. CV and EIS measurements were completed using a CHI-660b potentiostat (CH Instruments, Austin, Tex.). rmTLR-modified gold electrodes and platinum (Pt) wire were used as the working electrode and the counter electrode, respectively. A reference electrode (Ag/AgCl/3.0M KCl) and a salt bridge, filled with an agar and 1M KNO3 aqueous solution, were inserted to minimize the diffusion of chloride ions into the electrolyte solution. The agar solution was prepared by dissolving 2.0 grams of agar and 10.1 g KNOB in 100 mL of water. The CV and EIS electrolyte was made in a 10 mM HEPES aqueous buffer at pH˜7.4, which consisted of a 5 mM K4Fe(CN)6/5 mM K3Fe(CN)6 as a redox couple with 1M of NaClO4 as the supporting electrolyte. For consistency, the electrochemical measurements were carried out with open-circuit potentials. EIS experiments were conducted in the frequency range of 100,000 to 0.1 Hz with an amplitude of 5 mV. The experimental EIS curves were evaluated to determine the film resistance using ZSimpWin 2.0 software.

rmTLR2 = experiment: Label-free TLR2 sensor, EIS detection of Pam3CSK4 (Example 7); assay type: binding, mouse; conditions: for delta Rct %: 20 minutes; for Rct: before immersion 7784
Procedure: as §4, §5, §6

TLR4 = experiment: TLR multiplex sensor, EIS film resistance before/after exposure (Example 5), TLR4 sensor; assay type: binding; conditions: exposure 20 minutes
Procedure: as §1, §2, §3

TLR5, sequence (Q9JLF7 27-859): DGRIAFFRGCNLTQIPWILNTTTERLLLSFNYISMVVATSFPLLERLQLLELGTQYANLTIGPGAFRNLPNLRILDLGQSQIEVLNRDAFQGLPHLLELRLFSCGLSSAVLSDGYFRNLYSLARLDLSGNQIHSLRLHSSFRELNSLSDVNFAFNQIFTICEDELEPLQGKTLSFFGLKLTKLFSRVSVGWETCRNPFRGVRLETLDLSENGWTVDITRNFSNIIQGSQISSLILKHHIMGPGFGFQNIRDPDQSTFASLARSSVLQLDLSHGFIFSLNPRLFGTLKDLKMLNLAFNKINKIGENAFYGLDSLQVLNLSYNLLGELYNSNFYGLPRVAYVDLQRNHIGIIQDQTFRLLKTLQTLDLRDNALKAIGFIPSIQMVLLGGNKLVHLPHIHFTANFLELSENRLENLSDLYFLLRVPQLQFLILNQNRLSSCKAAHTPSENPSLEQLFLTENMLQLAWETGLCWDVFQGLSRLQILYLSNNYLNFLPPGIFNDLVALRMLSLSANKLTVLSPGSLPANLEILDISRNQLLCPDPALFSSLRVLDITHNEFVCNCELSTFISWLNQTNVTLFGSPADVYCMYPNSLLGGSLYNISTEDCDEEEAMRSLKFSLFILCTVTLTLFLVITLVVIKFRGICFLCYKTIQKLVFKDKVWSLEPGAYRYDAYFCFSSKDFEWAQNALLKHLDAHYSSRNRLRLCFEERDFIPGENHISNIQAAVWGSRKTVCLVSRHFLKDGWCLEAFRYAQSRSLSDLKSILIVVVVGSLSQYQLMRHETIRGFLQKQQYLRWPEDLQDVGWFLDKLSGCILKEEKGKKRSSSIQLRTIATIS

With Pam3CSK4 the “delta Rct %” value (TLR5) was “limited responses”, the limit of detection (rmTLR1) was 10 µM and the “delta Rct %” value (rmTLR1; 5 μM) was “not significant”. The “delta Rct %” value (rmTLR1; 25 μM) was 59±7%, the “delta Rct %” value (rmTLR1; 50 μM) was 98±10% and the Rct (rmTLR1; after 5 μM) was 10780 Ω · cm^2. For the same substance, the Rct (rmTLR1; after 10 μM) was 12760 Ω · cm^2, the Rct (rmTLR1; after 25 μM) was 16840 Ω · cm^2 and the Rct (rmTLR1; after 50 μM) was 21010 Ω · cm^2. The limit of detection (rmTLR2) was 10 µM, the “delta Rct %” value (rmTLR2; 5 μM) was “not significant” and the “delta Rct %” value (rmTLR2; 10 μM) was 32±6% and ~30%. For the same substance, the “delta Rct %” value (rmTLR2; 25 μM) was 42±18%, the “delta Rct %” value (rmTLR2; 50 μM) was 80±32% and the Rct (rmTLR2; after 5 μM) was 7355 Ω · cm^2. The Rct (rmTLR2; after 10 μM) was 9446 Ω · cm^2, the Rct (rmTLR2; after 25 μM) was 12770 Ω · cm^2 and the Rct (rmTLR2; after 50 μM) was 17610 Ω · cm^2. For the same substance, the “delta Rct %” value (TLR4) was “limited responses”.
